For this experiment, the system named is Plasmodium falciparum. Put plainly: Antiplasmodial activity against chloroquine-resistant Plasmodium falciparum W2 by FACS. The class given is functional, organism-based. On the technique in general: Flow cytometry measures light scatter and fluorescence of single cells or particles in a stream.

Values after ≈ are worked out from the molar mass of the structure shown. Where only a bound is given, the exact number is not on record here.

In general, IC50 refers to the concentration that gives 50% inhibition. `CC1OC(=O)C(C=O)=C2C=COC=C21` (centres undefined) [FAGRALDEHYDE] yielded an IC50 of 22.4 µg/mL (≈ 117 µM).

In turn, `C=C[C@@H]1C2=CCOC(=O)C2=CO[C@H]1O[C@@H]1O[C@H](CO)[C@@H](O)[C@H](O)[C@H]1O` [GENTIOPICROSIDE] returned an IC50 of over 50 µg/mL.

Turning to `C=C[C@H]1[C@H](O[C@@H]2O[C@H](CO)[C@@H](O)[C@H](O)[C@H]2O)OC=C2C(=O)OCC[C@H]21` [SWEROSIDE], the IC50 is over 50 µg/mL.

`C=C[C@H]1[C@H](O[C@@H]2O[C@H](CO)[C@@H](O)[C@H](O)[C@H]2O)OC=C2C(=O)OCC[C@]21O` [SWERTIAMARIN] came in with an IC50 of over 50 µg/mL.

For the origin of these results see ChEMBL document CHEMBL1151721, “Fagraldehyde, a secoiridoid isolated from Fagraea fragrans” (J Nat Prod, 2008).
